Data taken from patent US20050153856A1, “Methods and compositions for killing spores” (priority 2002, published 2005).

Tested on: Bacillus thuringiensis spores
Assay: Killing of spores (Example 2): microtiter serial 10-fold dilution, growth read with MTT
Format: cell-based
Settings: wells 7-8: KI only, no laccase, no methylsyringate, 1 hour 24 degrees Celsius pH 6.5
Procedure: Spore suspension was pipetted into the wells in row A of a microtiter plate. The reaction was initiated by the addition of laccase solution.
The microtiter plate was incubated at room temperature (24 degrees Celsius) for 1 hour.
In the tables growth is indicated with a “+” symbol.

Measured: growth

[I-].[K+] [KI, Potassium iodide]
+: 10-fold dilution step 4 | listed as B, 10-fold dilution step 1 | listed as C, 10-fold dilution step 2 | listed as D, 10-fold dilution step 3 | listed as F, 10-fold dilution step 5 | listed as G, 10-fold dilution step 6
